Test results reported in US20080255155A1, “KINASE INHIBITORS AND USES THEREOF” (priority 2006, published 2008).

Tests used:
[1] = molecular target: T1, recombinant human c-Met/HGF receptor (Homo sapiens, UniProt P08581); experiment: In vitro receptor tyrosine kinase assay, c-Met (DELFIA); assay type: biochemical; conditions: ATP 10 uM, enzyme 25 nM; read-out: Potency in enzyme assays Cmet
T1 construct: His tag; made in house; host or cells: Hi-5 cells (Trichoplusia ni), recombinant baculovirus
From the text: (§1) These tests measure the ability of compounds to inhibit the enzymatic activity of recombinant human c-Met/HGF receptor and VEGF receptor enzymatic activity.
A 1.3-kb cDNA corresponding to the intracellular domain of c-Met or c-Met IC (Genbank accession number NP000236-1 amino acid […]) is cloned into the BamHI/XhoI sites of the pBlueBacHis2A vector (Invitrogen) for the production of a histidine-tagged version of that enzyme. This construct is used to generate recombinant baculovirus using the Bac-N-Blue™ system according to the manufacturer's instructions (Invitrogen).
(§2) The c-Met IC protein is expressed in Hi-5 cells (Trichoplusia Ni) upon infection with recombinant baculovirus construct. Briefly, Hi-5 cells grown in suspension and maintained in serum-free medium (Sf900 II supplemented with gentamycin) at a cell density of about 2×10^6 cells/ml are infected with the above-mentioned viruses at a multiplicity of infection (MOI) of 0.2 during 72 hours at 27° C. with agitation at 120 rpm on a rotary shaker. Infected cells are harvested by centrifugation at 398 g for 15 min. Cell pellets are frozen at −80° C. until purification is performed.
All steps described in cell extraction and purification are performed at 4° C. Frozen Hi-5 cell pellets infected with the C-Met IC recombinant baculovirus are thawed and gently resuspended in Buffer A (20 mM Tris pH 8.0, 10% glycerol, 1 μg/ml pepstatin, 2 μg/ml Aprotinin and leupeptin, 50 μg/ml PMSF, 50 μg/ml TLCK and 10 μM E64, 0.5 mM DTT and 1 mM Levamisole) using 3 ml of buffer per gram of cells. The suspension is Dounce homogenized after which it is centrifuged at 22500 g, 30 min., 4° C. The supernatant (cell extract) is used as starting material for purification of c-Met IC.
The supernatant is loaded onto a QsepharoseFF column (Amersham Biosciences) equilibrated with Buffer B (20 mM Tris pH 8.0, 10% glycerol) supplemented with 0.05M NaCl. Following a ten column volume (CV) wash with equilibration buffer, bound proteins are eluted with a 5 CV salt linear gradient spanning from 0.05 to 1M NaCl in Buffer B. Typically, the conductivity of selected fractions rank between 6.5 and 37 mS/cm. This Qsepharose eluate has an estimated NaCl concentration of 0.33M and is supplemented with a 5M NaCl solution in order to increase NaCl concentration at 0.5M and also with a 5M Imidazole (pH 8.0) solution to achieve a final imidazole concentration of 15 mM. This material is loaded onto a HisTrap affinity column (GE Healthcare) equilibrated with Buffer C (50 mM NaPO4 pH 8.0, 0.5M NaCl, 10% glycerol) supplemented with 15 mM imidazole. After a 10 CV wash with equilibration buffer and an 8 CV wash with buffer C+40 mM imidazole, bound proteins are eluted with an 8 CV linear gradient (15 to 500 mM) of imidazole in buffer C. C-Met IC enriched fractions from this chromatography step are pooled based on SDS-PAGE analysis. This pool of enzyme undergoes buffer exchange using PD-10 column (GE Healthcare) against buffer D (25 mM HEPES pH 7.5, 0.1M NaCl, 10% glycerol and 2 mM β-mercaptoethanol). Final C-Met IC protein preparations concentrations are about 0.5 mg/ml with purity approximating 80%. Purified c-Met IC protein stocks are supplemented with BSA at 1 mg/ml, aliquoted and frozen at −80° C. prior to use in enzymatic assay.
Inhibition of c-Met/HGF receptor and VEGFR/KDR is measured in a DELFIA™ assay (Perkin Elmer). The substrate poly(Glu4,Tyr) is immobilized onto black high-binding polystyrene 96-well plates. The coated plates are washed and stored at 4° C. During the assay, enzymes are pre-incubated with inhibitor and Mg-ATP on ice in polypropylene 96-well plates for 4 minutes, and then transferred to the coated plates. The subsequent kinase reaction takes place at 30° C. for 10-30 minutes. ATP concentrations in the assay are 10 uM for C-Met (5× the Km) and 0.6 uM for VEGFR/KDR (2× the Km). Enzyme concentration is 25 nM (C-Met) or 5 nM (VEGFR/KDR). […]

VEGF receptor KDR = molecular target: T2, VEGF receptor KDR (Homo sapiens, UniProt P35968); experiment: In vitro receptor tyrosine kinase assay, VEGF receptor KDR (DELFIA); assay type: biochemical; conditions: ATP 0.6 uM, enzyme 5 nM; read-out: Potency in enzyme assays VEGF
T2 construct: made in house; host or cells: Sf9 cells (Spodoptera frugiperda), recombinant baculovirus
T2 sequence (P35968 806-1356): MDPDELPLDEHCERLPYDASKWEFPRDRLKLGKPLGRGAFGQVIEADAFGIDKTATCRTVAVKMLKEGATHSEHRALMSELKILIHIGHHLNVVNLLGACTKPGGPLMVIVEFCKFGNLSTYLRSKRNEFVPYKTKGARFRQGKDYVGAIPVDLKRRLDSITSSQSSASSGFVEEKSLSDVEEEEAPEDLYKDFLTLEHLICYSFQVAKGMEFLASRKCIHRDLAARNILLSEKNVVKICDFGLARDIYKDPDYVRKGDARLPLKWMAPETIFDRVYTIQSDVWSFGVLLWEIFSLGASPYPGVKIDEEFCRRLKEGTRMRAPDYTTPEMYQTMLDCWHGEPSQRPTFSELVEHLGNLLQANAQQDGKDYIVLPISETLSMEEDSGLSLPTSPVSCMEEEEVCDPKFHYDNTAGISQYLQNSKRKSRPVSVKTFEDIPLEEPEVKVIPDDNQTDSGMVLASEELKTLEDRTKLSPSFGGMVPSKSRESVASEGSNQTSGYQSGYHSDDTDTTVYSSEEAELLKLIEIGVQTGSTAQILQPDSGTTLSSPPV
From the text: as §1
In the case of VEGF receptor KDR a 1.6-kb cDNA corresponding to the catalytic domain of VEGFR2 or KDR (Genbank accession number AF035121 amino acid 806 to 1356) is cloned into the Pst I site of the pDEST20 Gateway vector (Invitrogen) for the production of a GST-tagged version of that enzyme. This construct is used to generate recombinant baculovirus using the Bac-to-Bac system according to the manufacturer's instructions (Invitrogen).
as §2, with “GST-VEGFR2806-1356” for “c-Met IC”, “Sf9” for “Hi-5”, “(Spodoptera frugiperda)” for “(Trichoplusia Ni)”, “0.1” for “0.2”
All steps described in cell extraction and purification are performed at 4° C. Frozen Sf9 cell pellets infected with the GST-VEGFR2806-1356 recombinant baculovirus re thawed and gently resuspended in Buffer A (PBS pH 7.3 supplemented with 1 μg/ml pepstatin, 2 μg/ml Aprotinin and leupeptin, 50 μg/ml PMSF, 50 μg/ml TLCK and 10 μM E64 and 0.5 mM DTT) using 3 ml of buffer per gram of cells. Suspension is Dounce homogenized and 1% Triton X-100 is added to the homogenate after which it is centrifuged at 22500 g, 30 min., 4° C. The supernatant (cell extract) is used as starting material for purification of GST-VEGFR2806-1356.
The supernatant is loaded onto a GST-agarose column (Sigma) equilibrated with PBS pH 7.3. Following a four column volume (CV) wash with PBS pH 7.3+1% Triton X-100 and 4 CV wash with buffer B (50 mM Tris pH 8.0, 20% glycerol and 100 mM NaCl), bound proteins are step eluted with 5 CV of buffer B supplemented with 5 mM DTT and 15 mM glutathion. GST-VEGFR2806-1356 enriched fractions from this chromatography step are pooled based on U.V. trace i.e. fractions with high O.D^-280- Final GST-VEGFR2806-1356 protein preparations concentrations are about 0.7 mg/ml with purity approximating 70%. Purified GST-VEGFR2806-1356 protein stocks are aliquoted and frozen at −80° C. prior to use in enzymatic assay.
Inhibition of c-Met/HGF receptor and VEGFR/KDR is measured in a DELFIA™ assay (Perkin Elmer). The substrate poly(Glu4,Tyr) is immobilized onto black high-binding polystyrene 96-well plates. The coated plates are washed and stored at 4° C. During the assay, enzymes are pre-incubated with inhibitor and Mg-ATP on ice in polypropylene 96-well plates for 4 minutes, and then transferred to the coated plates. The subsequent kinase reaction takes place at 30° C. for 10-30 minutes. ATP concentrations in the assay are 10 uM for C-Met (5× the Km) and 0.6 uM for VEGFR/KDR (2× the Km). Enzyme concentration is 25 nM (C-Met) or 5 nM (VEGFR/KDR). After incubation, the kinase reactions are quenched with EDTA and the plates are washed. Phosphorylated product is detected by incubation with Europium-labeled anti-phosphotyrosine MoAb. After washing the plates, bound MoAb is detected by time-resolved fluorescence in a Gemini SpectraMax reader (Molecular Devices). Compounds are evaluated over a range of concentrations and IC50's (concentration of compounds giving 50% inhibition of enzymatic activity) are determined.

A549 = A549 wound healing inhibition; conditions: Homo sapiens; A549 cells; read-out: Potency in cell-based assays A549 wound healing inhibition
DU145 = DU145 scattering inhibition; conditions: Homo sapiens, DU-145; DU145 cells; read-out: Potency in cell-based assays DU145 scattering inhibition

T1 sequence (P08581 1078-1337): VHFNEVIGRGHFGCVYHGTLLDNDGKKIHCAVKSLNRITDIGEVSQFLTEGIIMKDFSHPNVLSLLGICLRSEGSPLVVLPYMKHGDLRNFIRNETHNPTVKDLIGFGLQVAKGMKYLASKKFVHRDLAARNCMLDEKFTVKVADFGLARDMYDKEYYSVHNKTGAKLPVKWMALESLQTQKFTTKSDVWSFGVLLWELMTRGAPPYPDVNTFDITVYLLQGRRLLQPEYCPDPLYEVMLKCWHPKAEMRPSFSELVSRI

O=C(CC(Nc1ccc(F)cc1)C(F)(F)F)Nc1ccc(Oc2cc(NC(=O)N3CCCC3)ncn2)c(F)c1 (stereo not drawn) [Compound 9a, N-(6-(2-Fluoro-4-(4,4,4-trifluoro-3-(4-fluorophenylamino)butanamido)phenoxy)pyrimidin-4-yl)pyrrolidine-1-carboxamide]
IC50 [1]: ≥ 1000 nM
IC50 (VEGF receptor KDR): ≥ 1000 nM
IC50 (A549): 1000 to 5000 nM
IC50 (DU145): 5000 to 10000 nM

O=C(Nc1ccc(Oc2cc(NC(=O)N3CCCC3)ncn2)c(F)c1)C1CCN(c2ccccc2)C1=O (stereo not drawn) [Compound 9b, N-(6-(2-Fluoro-4-(2-oxo-1-phenylpyrrolidine-3-carboxamido)phenoxy)pyrimidin-4-yl)pyrrolidine-1-carboxamide]
IC50 [1]: ≥ 1000 nM
IC50 (VEGF receptor KDR): ≥ 1000 nM
IC50 (A549): 5000 to 10000 nM
IC50 (DU145): 5000 to 10000 nM

O=C(Nc1cc(Oc2ccc(NC(=O)N3CCN(c4ccccc4)C3=O)cc2F)ncn1)N1CCCC1 [Compound 9c, N-(3-Fluoro-4-(6-(pyrrolidine-1-carboxamido)pyrimidin-4-yloxy)phenyl)-2-oxo-3-phenylimidazolidine-1-carboxamide]
IC50 [1]: < 250 nM
IC50 (VEGF receptor KDR): < 250 nM
IC50 (A549): 1000 to 5000 nM
IC50 (DU145): 5000 to 10000 nM

O=C(CC(Nc1ccc(Oc2cc(NC(=O)N3CCCC3)ncn2)c(F)c1)C(F)(F)F)Nc1ccccc1 (stereo not drawn) [Compound 13, N-(6-(2-Fluoro-4-(1,1,1-trifluoro-4-oxo-4-(phenylamino)butan-2-ylamino)phenoxy)pyrimidin-4-yl)pyrrolidine-1-carboxamide]
IC50 [1]: ≥ 1000 nM
IC50 (VEGF receptor KDR): < 250 nM
IC50 (A549): 5000 to 10000 nM
IC50 (DU145): 5000 to 10000 nM

O=C(Nc1cc(Oc2ccc(NC(=O)N3CCN(c4ccccc4)C3=O)cc2F)ccn1)N1CCCC1 [Compound 18a, N-(3-Fluoro-4-(2-(pyrrolidine-1-carboxamido)pyridin-4-yloxy)phenyl)-2-oxo-3-phenylimidazolidine-1-carboxamide]
IC50 [1]: < 250 nM
IC50 (VEGF receptor KDR): 250 to 500 nM
IC50 (A549): ≥ 1000 nM
IC50 (DU145): ≥ 1000 nM

O=C(Nc1cc(Oc2ccc(NC(=O)N3CCN(c4ccc(F)cc4)C3=O)cc2F)ccn1)N1CCCC1 [Compound 18b, N-(3-fluoro-4-(2-(pyrrolidine-1-carboxamido)pyridin-4-yloxy)phenyl)-3-(4-fluorophenyl)-2-oxoimidazolidine-1-carboxamide]
IC50 [1]: < 250 nM
IC50 (VEGF receptor KDR): < 250 nM
IC50 (A549): ≥ 1000 nM
IC50 (DU145): ≥ 1000 nM

CN(C)CCCNC(=O)Nc1cc(Oc2ccc(NC(=O)N3CCN(c4ccccc4)C3=O)cc2F)ccn1 [Compound 18c, N-(4-(2-(3-(3-(dimethylamino)propyl)ureido)pyridin-4-yloxy)-3-fluorophenyl)-2-oxo-3-phenylimidazolidine-1-carboxamide]
IC50 [1]: 500 to 1000 nM
IC50 (VEGF receptor KDR): ≥ 1000 nM
IC50 (A549): 1000 to 5000 nM
IC50 (DU145): ≥ 1000 nM

CN(C)CCOC(=O)Nc1cc(Oc2ccc(NC(=O)N3CCN(c4ccccc4)C3=O)cc2F)ccn1 [Compound 18d, 2-(dimethylamino)ethyl4-(2-fluoro-4-(2-oxo-3-phenylimidazolidine-1-carboxamido)phenoxy)pyridin-2-ylcarbamate]
IC50 [1]: 250 to 500 nM
IC50 (VEGF receptor KDR): ≥ 1000 nM
IC50 (A549): > 10000 nM
IC50 (DU145): > 10000 nM

CN(C)[C@@H]1CCN(C(=O)Nc2cc(Oc3ccc(NC(=O)N4CCN(c5ccccc5)C4=O)cc3F)ccn2)C1 [Compound 18e, (R)-N-(4-(2-(3-(dimethylamino)pyrrolidine-1-carboxamido)pyridin-4-yloxy)-3-fluorophenyl)-2-oxo-3-phenylimidazolidine-1-carboxamide]
IC50 [1]: < 250 nM
IC50 (VEGF receptor KDR): 250 to 500 nM
IC50 (A549): ≥ 1000 nM
IC50 (DU145): ≥ 1000 nM

CN(C)[C@H]1CCN(C(=O)Nc2cc(Oc3ccc(NC(=O)N4CCN(c5ccccc5)C4=O)cc3F)ccn2)C1 [Compound 18f, (S)-N-(4-(2-(3-(dimethylamino)pyrrolidine-1-carboxamido)pyridin-4-yloxy)-3-fluorophenyl)-2-oxo-3-phenylimidazolidine-1-carboxamide]
IC50 [1]: < 250 nM
IC50 (VEGF receptor KDR): < 250 nM
IC50 (A549): 1000 to 5000 nM
IC50 (DU145): ≥ 1000 nM

O=C(NCCN1CCOCC1)c1cc(Oc2ccc(NC(=O)N3CCN(c4ccc(F)cc4)C3=O)cc2F)ccn1 [Compound 87d, 4-(2-fluoro-4-(3-(4-fluorophenyl)-2-oxoimidazolidine-1-carboxamido)phenoxy)-N-(2-morpholinoethyl)picolinamide]
IC50 [1]: ≥ 1000 nM
IC50 (VEGF receptor KDR): > 1000 nM
